Consider 19 molecules from patent publication US8362012B2, “Benzoxazine benzimidazole derivative, a pharmaceutical composition comprising the same, and a use thereof” (Daewoong Pharmaceutical Co., Ltd., priority 2008, dated 2013).

The target of experiment [1] is T1, human vanilloid-1 (hVR-1) in hVR-1-HEK293 cell line (Homo sapiens, UniProt Q8NER1).
T1 construct: expressed in transfected cells; host or cells: HEK293 Tet-on strain, doxycycline-induced
Briefly: Inhibitory effect on calcium influx via a vanilloid receptor (capsaicin-stimulated, Fluo-3/AM). The experiment is classed as cell-based. To be noted: hVR-1-HEK293 cells, 1 μM of capsaicin, compounds 0.015˜2000 nM; read-out: I.A. (inhibitory activity), IC50 on intracellular calcium influx. An outline of the steps: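 Doxycycline-induced (1 μg/mL, 2 days) hVR-1-HEK293 cells loaded with Fluo-3/AM for 90 min at 37° C, then stimulated with 1 μM capsaicin. Calcium influx expressed as background-corrected fluorescence relative to positive control, analysed by Hill equation and graded by activity criteria.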
(A change in cytosolic calcium serves as a functional read-out for many receptors and channels.)

The test system of a further experiment is ICR male mice. Briefly: Phenyl-p-quinone (PBQ)-induced writhing experiment using mice. The settings on record: orally administered, PBQ (0.02%) intraperitoneally after 1 hour, writhing counted for 10 min. In kind it is in vivo. Here is the method:
In order to evaluate the effect on pain of the compounds prepared in the Examples, behaviors such as twisting or writhing of body resulted from pain were verified by the phenyl-p-quinone (PBQ)-induced writhing experiment using mice. 5 week-old ICR male mice were used as experimental animals and PBQ (0.02%), as a chemical stimulator. The suspensions of 20 mg of the compounds of the present invention and an excipient such as Na—CMC (sodium carboxymethyl cellulose) in 10 mL of saline were used as test compounds. The test compounds were orally administered to the mice and after 1 hour, PBQ was intraperitoneally administrated in an amount of 10 mL per kg of body weight. Also, as a control group, equivalent amounts of BCTC were administered. The writhing number of each mouse was measured for 10 min starting from 5 min after the administration, and the analgesic effect was verified by counting the reduced number compared to the control group administered with only excipient and calculating the % inhibitory rate according to the following Formula 2. % inhibition rate=(writhing # of control group−writhing # of test group)/writhing # of control group×100 [Formula 2]
In general terms: In writhing tests, fewer writhes than in controls are read as antinociception.

T1 sequence (Q8NER1 whole entry): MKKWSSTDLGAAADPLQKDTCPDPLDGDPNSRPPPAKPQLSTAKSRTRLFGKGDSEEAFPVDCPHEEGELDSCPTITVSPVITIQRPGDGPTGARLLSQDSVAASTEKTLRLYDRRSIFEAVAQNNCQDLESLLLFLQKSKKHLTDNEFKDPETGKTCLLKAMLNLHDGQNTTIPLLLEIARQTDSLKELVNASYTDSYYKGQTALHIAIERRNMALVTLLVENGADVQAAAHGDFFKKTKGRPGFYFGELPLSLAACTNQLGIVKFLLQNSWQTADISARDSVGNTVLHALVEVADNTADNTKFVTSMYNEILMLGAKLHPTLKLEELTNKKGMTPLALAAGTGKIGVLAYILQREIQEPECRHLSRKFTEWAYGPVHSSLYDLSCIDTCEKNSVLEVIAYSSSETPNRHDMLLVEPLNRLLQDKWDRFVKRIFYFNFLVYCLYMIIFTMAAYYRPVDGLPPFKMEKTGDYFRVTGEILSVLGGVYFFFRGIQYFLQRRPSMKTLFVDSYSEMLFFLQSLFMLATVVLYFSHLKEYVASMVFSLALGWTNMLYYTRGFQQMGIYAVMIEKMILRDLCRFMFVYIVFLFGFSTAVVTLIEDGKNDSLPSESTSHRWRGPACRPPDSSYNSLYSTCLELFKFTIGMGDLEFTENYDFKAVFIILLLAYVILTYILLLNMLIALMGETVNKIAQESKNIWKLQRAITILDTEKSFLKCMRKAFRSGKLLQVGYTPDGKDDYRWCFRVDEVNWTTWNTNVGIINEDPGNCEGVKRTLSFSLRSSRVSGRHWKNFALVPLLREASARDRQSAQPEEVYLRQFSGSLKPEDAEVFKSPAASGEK

For orientation: IC50 means the concentration at which inhibition is half-maximal. On to `C=Cc1ccc(N2c3cccc(-c4nc5cc(Cl)c(Cl)cc5[nH]4)c3OC[C@@H]2CO)nc1` [Example 68, [(S)-8-(5,6-dichloro-1H-benzimidazol-2-yl)-4-(5-vinyl-pyridin-2-yl)-3,4-dihydro-2H-benzo[1,4]oxazin-3-yl]-methanol], for which the IC50 in experiment [1] is below 20 nM. In the experiment on ICR male mice, the “I.A. (inhibitory activity), % inhibition rate of writhing” value is given as “+++ (51-80%)”.

As to `Cc1ccc(N2CCOc3c(-c4nc5cc(Cl)c(Cl)cc5[nH]4)cccc32)nc1` [Example 28, 8-(5,6-dichloro-1H-benzimidazol-2-yl)-4-(5-methyl-pyridin-2-yl)-3,4-dihydro-2H-benzo[1,4]oxazine], in experiment [1], the IC50 was 20 to 100 nM. Besides, the “I.A. (inhibitory activity), % inhibition rate of writhing” value with ICR male mice is “+ (<20%)”.

As for `Cc1ccc(N2c3cccc(-c4nc5ccccc5[nH]4)c3OC[C@@H]2CO)nc1` [Example 53, [(S)-8-(1H-benzimidazol-2-yl)-4-(5-methyl-pyridin-2-yl)-3,4-dihydro-2H-benzo[1,4]oxazin-3-yl]-methanol], in experiment [1], the IC50 is below 20 nM. For the same molecule, the “I.A. (inhibitory activity), % inhibition rate of writhing” value in the experiment with ICR male mice is given as “+ (<20%)”.

Turning to `Cc1ccc(N2c3cccc(-c4nc5ccc(C(C)(C)C)cc5[nH]4)c3OC[C@@H]2CO)nc1` [Example 34, [(S)-8-(6-tert-butyl-1H-benzimidazol-2-yl)-4-(5-methyl-pyridin-2-yl)-3,4-dihydro-2H-benzo[1,4]oxazin-3-yl]-methanol], in experiment [1], the IC50 was below 20 nM. Besides, the “I.A. (inhibitory activity), % inhibition rate of writhing” value in the experiment with ICR male mice was “+ (<20%)”.

Regarding `COC[C@H]1COc2c(-c3nc4cc(Cl)c(F)cc4[nH]3)cccc2N1c1ccc(C)cn1` [Example 103, (S)-8-(5-chloro-6-fluoro-1H-benzimidazol-2-yl)-3-methoxymethyl-4-(5-methyl-pyridin-2-yl)-3,4-dihydro-2H-benzo[1,4]oxazine], in experiment [1], the IC50 was below 20 nM. The “I.A. (inhibitory activity), % inhibition rate of writhing” value in the experiment on ICR male mice was “+++ (51-80%)”.

Regarding `FC(F)(F)c1ccc2nc(-c3cccc4c3OCCN4c3ncc(Cl)cc3Cl)[nH]c2c1` [Example 18, 4-(3,5-dichloro-pyridin-2-yl)-8-(6-trifluoromethyl-1H-benzimidazol-2-yl)-3,4-dihydro-2H-benzo[1,4]oxazine], the IC50 in experiment [1] lay in the range of 20 to 100 nM. The “I.A. (inhibitory activity), % inhibition rate of writhing” value with ICR male mice was “+ (<20%)”.

As to `Cc1ccc(N2CCOc3c(-c4nc5c(F)cc(Br)cc5[nH]4)cccc32)nc1` [Example 33, 8-(6-bromo-4-fluoro-1H-benzimidazol-2-yl)-4-(5-methyl-pyridin-2-yl)-3,4-dihydro-2H-benzo[1,4]oxazine], the IC50 in experiment [1] lay within 20 to 100 nM. In addition, the “I.A. (inhibitory activity), % inhibition rate of writhing” value in the experiment with ICR male mice was “+++ (51-80%)”.

As to `Cc1ccc(N2c3cccc(-c4nc5c(C)cc(Br)cc5[nH]4)c3OC[C@@H]2CO)nc1` [Example 46, [(S)-8-(6-bromo-4-methyl-1H-benzimidazol-2-yl)-4-(5-methyl-pyridin-2-yl)-3,4-dihydro-2H-benzo[1,4]oxazin-3-yl]-methanol], the IC50 in experiment [1] is below 20 nM. The “I.A. (inhibitory activity), % inhibition rate of writhing” value with ICR male mice was “++ (20˜50%)”.

Consider `COC[C@H]1COc2c(-c3nc4c(Br)cc(Br)cc4[nH]3)cccc2N1c1ccc(C)cn1` [Example 97, (S)-8-(4,6-dibromo-1H-benzimidazol-2-yl)-3-methoxymethyl-4-(5-methyl-pyridin-2-yl)-3,4-dihydro-2H-benzo[1,4]oxazine], for which the concentration for half-maximal inhibition (IC50) in experiment [1] is below 20 nM. For the same molecule, in the experiment with ICR male mice, the “I.A. (inhibitory activity), % inhibition rate of writhing” value is “++ (20˜50%)”.

With `COC[C@H]1COc2c(-c3nc4ccc(C(C)(C)C)cc4[nH]3)cccc2N1c1ccc(C)cn1` [Example 88, (S)-8-(6-tert-butyl-1H-benzimidazol-2-yl)-3-methoxymethyl-4-(5-methyl-pyridin-2-yl)-3,4-dihydro-2H-benzo[1,4]oxazine], the IC50 in experiment [1] was below 20 nM. Further, in the experiment with ICR male mice, the “I.A. (inhibitory activity), % inhibition rate of writhing” value is listed as “++ (20˜50%)”.

For the molecule `COC[C@H]1COc2c(-c3nc4c(C)cc(Br)cc4[nH]3)cccc2N1c1ccc(C)cn1` [Example 104, (S)-8-(6-bromo-4-methyl-1H-benzimidazol-2-yl)-3-methoxymethyl-4-(5-methyl-pyridin-2-yl)-3,4-dihydro-2H-benzo[1,4]oxazine], the IC50 in experiment [1] is below 20 nM. Further, the “I.A. (inhibitory activity), % inhibition rate of writhing” value in the experiment with ICR male mice was “+++ (51-80%)”.

For the molecule `COC[C@H]1COc2c(-c3nc4ccc(F)cc4[nH]3)cccc2N1c1ccc(C)cn1` [Example 98, (S)-8-(6-fluoro-1H-benzimidazol-2-yl)-3-methoxymethyl-4-(5-methyl-pyridin-2-yl)-3,4-dihydro-2H-benzo[1,4]oxazine], the IC50 in experiment [1] lay in the range of 20 to 100 nM. Besides, the “I.A. (inhibitory activity), % inhibition rate of writhing” value with ICR male mice is on record as “++ (20˜50%)”.

`Cc1ccc(N2c3cccc(-c4nc5ccc(C(F)(F)F)cc5[nH]4)c3OC[C@@H]2CO)nc1` [Example 35, [(S)-4-(5-methyl-pyridin-2-yl)-8-(6-trifluoromethyl-1H-benzimidazol-2-yl)-3,4-dihydro-2H-benzo[1,4]oxazin-3-yl]-methanol]: the IC50 in experiment [1] is below 20 nM. The “I.A. (inhibitory activity), % inhibition rate of writhing” value in the experiment with ICR male mice is “+++ (51-80%)”.

For `Cc1ccc(N2c3cccc(-c4nc5c(C)cccc5[nH]4)c3OC[C@@H]2CO)nc1` [Example 50, [(S)-8-(4-methyl-1H-benzimidazol-2-yl)-4-(5-methyl-pyridine-2-yl)-3,4-dihydro-2H-benzo[1,4]oxazin-3-yl]-methanol], the IC50 in experiment [1] was below 20 nM. Further, the “I.A. (inhibitory activity), % inhibition rate of writhing” value with ICR male mice was “+ (<20%)”.

For the molecule `Cc1ccc(N2c3cccc(-c4nc5cc(Cl)c(Cl)cc5[nH]4)c3OC[C@@H]2CO)nc1` [Example 38, [(S)-8-(5,6-dichloro-1H-benzimidazol-2-yl)-4-(5-methyl-pyridin-2-yl)-3,4-dihydro-2H-benzo[1,4]oxazin-3-yl]-methanol], the IC50 in experiment [1] is below 20 nM. For the same molecule, the “I.A. (inhibitory activity), % inhibition rate of writhing” value with ICR male mice is recorded as “+++ (51-80%)”.

On to `COC[C@H]1COc2c(-c3nc4c(Br)cc(C(F)(F)F)cc4[nH]3)cccc2N1c1ccc(C)cn1` [Example 93, (S)-8-(4-bromo-6-trifluoromethyl-1H-benzimidazol-2-yl)-3-methoxymethyl-4-(5-methyl-pyridin-2-yl)-3,4-dihydro-2H-benzo[1,4]oxazine], for which the IC50 in experiment [1] was below 20 nM. In addition, in the experiment on ICR male mice, the “I.A. (inhibitory activity), % inhibition rate of writhing” value is on record as “++ (20˜50%)”.

In the case of `Cc1ccc(N2CCOc3c(-c4nc5c(Br)cc(C(F)(F)F)cc5[nH]4)cccc32)nc1` [Example 31, 8-(4-bromo-6-trifluoromethyl-1H-benzimidazol-2-yl)-4-(5-methyl-pyridin-2-yl)-3,4-dihydro-2H-benzo[1,4]oxazine], the IC50 in experiment [1] was 20 to 100 nM. For the same molecule, in the experiment with ICR male mice, the “I.A. (inhibitory activity), % inhibition rate of writhing” value is on record as “++ (20˜50%)”.

On to `COC[C@H]1COc2c(-c3nc4c(Cl)cc(C(F)(F)F)cc4[nH]3)cccc2N1c1ccc(C)cn1` [Example 92, (S)-8-(4-chloro-6-trifluoromethyl-1H-benzimidazol-2-yl)-3-methoxymethyl-4-(5-methyl-pyridin-2-yl)-3,4-dihydro-2H-benzo[1,4]oxazine], for which the IC50 in experiment [1] is below 20 nM. Moreover, in the experiment with ICR male mice, the “I.A. (inhibitory activity), % inhibition rate of writhing” value was “++ (20˜50%)”.

`C=Cc1ccc(N2c3cccc(-c4nc5c(C)cc(Br)cc5[nH]4)c3OC[C@@H]2CO)nc1` [Example 66, [(S)-8-(6-bromo-4-methyl-1H-benzimidazol-2-yl)-4-(5-vinyl-pyridin-2-yl)-3,4-dihydro-2H-benzo[1,4]oxazin-3-yl]-methanol]: the IC50 in experiment [1] was below 20 nM. Besides, the “I.A. (inhibitory activity), % inhibition rate of writhing” value in the experiment on ICR male mice was “+++ (51-80%)”.
